Values of other authors, collected in patent US20190357582A1, “Methods For Inducing Adipocyte Browning, Improving Metabolic Flexibility, And Reducing Detrimental White Adipose Tissue Deposition And Dysfunction” (MEAD JOHNSON NUTRITION COMPANY, priority 2017, published 2019).

Test system: UCP1
Conditions: positive control for browning

SMILES: COc1ccc2c(c1)[nH]c1c(C)nccc12 [Harmine]
- browning activity: browning activity
